Measurements taken from article PMC13079941 (Proceedings of the National Academy of Sciences of the …, 2026).

Target: T1, CsRD21a (Citrus sinensis, UniProt A0ACB8KUT6)
T1 construct: gene KPL71_016607; full-length, untagged, expressed transiently in Nicotiana benthamiana; secreted, prodomain removed in planta, active forms 25-35 kDa; concentrated apoplastic fluid, not purified
Experiment: competitive activity-based protein profiling, DCG-04 / streptavidin-HRP blot
Type: biochemical
Settings: apoplastic fluid; 30 min preincubation; 50 mM sodium acetate pH 5.0, 5 mM DTT, room temperature

T1 sequence (A0ACB8KUT6 139-468): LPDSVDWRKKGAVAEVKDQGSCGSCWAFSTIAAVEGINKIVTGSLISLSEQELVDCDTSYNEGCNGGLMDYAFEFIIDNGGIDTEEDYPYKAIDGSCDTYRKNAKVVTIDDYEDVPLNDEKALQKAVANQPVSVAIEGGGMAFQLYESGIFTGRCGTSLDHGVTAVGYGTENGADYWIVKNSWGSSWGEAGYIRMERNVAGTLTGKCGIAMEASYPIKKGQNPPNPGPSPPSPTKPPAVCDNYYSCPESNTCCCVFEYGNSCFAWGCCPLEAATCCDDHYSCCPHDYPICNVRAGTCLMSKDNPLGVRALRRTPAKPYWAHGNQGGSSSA

CC(C)C[C@H](NC(=O)[C@H]1O[C@@H]1C(=O)O)C(=O)NCCCCNC(=N)N [E-64]
decrease of DCG-04 labelling, dosage-dependent: This signal decreased in the presence of the cysteine protease inhibitor E-64 in a dosage-dependent manner
